Test results taken from patent US11992489B2, “Substituted tetrahydroquinoline compounds as indoleamine 2,3-dioxygenase inhibitors” (Merck Sharp & Dohme LLC, priority 2018, dated 2024).

Assays:
IDO1 [1] = target: T1, IDO1 (Homo sapiens, UniProt P14902); assay: IDO1 cellular assay in HeLa cells stimulated with IFNγ; type: cell-based; settings: IFNγ 100 ng/mL, 300 uM L-tryptophan, about 48 hours, fluorescence readout, read-out: HeLa Cell Potency, IC50
Experimental: Biological Assays IDO1 Cellular Assay in HeLa Cells Stimulated with IFNγ
HeLa cells were cultured in complete HeLa culture medium (90% EMEM, 10% heat-inactivated fetal bovine serum) and expanded to about 1×10^9 cells. The cells were then collected and frozen down at 1×10^7 cells/vial in 1 mL frozen medium (90% complete HeLa culture medium, 10% DMSO).
Compounds to be tested were serially diluted in ten 3-fold steps in DMSO starting from 10 mM DMSO stocks in Echo low volume plate(s). Compound dilutions or DMSO alone were then dispensed from the dilution plate(s) into Greiner black 384-well assay plate(s) (catalog #781086, 50 nL/well) using an Echo 550 acoustic liquid handler (Labcyte).
Frozen HeLa cells were thawed and transferred into HeLa assay medium (99% complete HeLa culture medium, 1% Pen/Strep) with 20 mL medium/vial of cells. The cells were spun down at 250 g in a table top centrifuge for 5 min and suspended in same volume of HeLa assay medium. The cells were then counted and adjusted to a density of 2×10^5 cells/mL in HeLa assay medium. Sterile L-tryptophan were added to the cells with final concentration of 300 uM L-tryptophan. A small aliquot (2 mL/plate) of HeLa cells were set aside and were not treated with IFNγ, to serve as the Max-E control.
HeLa cells with and without IFNγ were dispensed to the respective wells of 384-well assay plates containing the compounds. The plates were incubated for about 48 hours at a 37° C., 5% CO2 incubator. Afterwards, 12 μL of 0.5 M methyl isonipecotate in dimethyl sulfoxide were added into each well and the plates were sealed and incubated at 37° C. without CO2 overnight. The plates were centrifuged for 1 min at 200×g. The resulting fluorescence was measured in a Spectramax plate reader (Molecular Devices) with a 400 nm excitation filter and a 510 nm emission filter.
The fluorescence intensity of each well was corrected for the background observed in wells with non-IFNγ-treated cells and was expressed as a fraction of the intensity observed in wells of IFNγ-treated cells and DMSO only. Potencies were calculated by linear least squares fit to the four parameter logistic IC50 equation.

IDO1 [2] = target: T1, IDO1; assay: IDO1 human whole blood assay; type: cell-based; parameters: Human whole blood was drawn in sodium heparin coated tubes from healthy internal donors; from tissue; host or cells: human whole blood from healthy donors, stimulated with LPS/IFNγ; settings: stimulant 100 ng/mL final, 18 h, kynurenine by LC/MS/MS, read-out: Human Whole Blood Potency, IC50
Experimental: IDO1 Human Whole Blood Assay
Compounds to be tested were serially diluted in ten 3-fold steps in DMSO starting from 10 mM. 3 μL of compound dilutions or DMSO alone were then dispensed from the dilution plate into a polypropylene 96-well assay plate containing 97 μL of RPMI medium using an Echo 555 acoustic liquid handler (Labcyte). Lipopolysaccharide (LPS) induced IFNγ was prepared in RPMI medium to a 10× of final conc. (1000 ng/mL), final concentration is 100 ng/mL.
Human whole blood was drawn in sodium heparin coated tubes from healthy internal donors. 240 μL of blood was transferred to each of the wells of a v-bottom 96 well plate. 30 μL of compound was transferred from intermediate dilution plate, and incubated for 15 min. 30 μL from stimulants was then transferred to blood and mixed thoroughly. Plate was covered with breathable membrane and incubated at 37° C. for overnight (18 h).
On day 2, isotope labeled standard solutions of kunurenine and tryptophan was made in water at 10× concentration and 30 μL was added to the blood at 3 μM final concentration. The assay plates were centrifuged at 300×G for 10 min with no brake to separate plasma from red blood cells. 60 μL of plasma samples was removed without disturbing red blood cells. Plasma was diluted with RPMI in 1:1 ratio and proteins were precipitated out with two volumes of Acetonitrile. The plates were centrifuged at 4000×G for 60 min. 20 μL of supernatant was carefully transferred to a 384 well plate containing 40 μL of 0.1% formic acid in water and analyzed by LC/MS/MS.
LC/MS/MS analyses were performed using Thermo Fisher's LX4-TSQ Quantum Ultra system. This system consists of four Agilent binary high-performance liquid chromatography (HPLC) pumps and a TSQ Quantum Ultra triple quadrupole MS/MS instrument. For each sample, 5 μL were injected onto an Atlantis T3 column (2.1 mm×150 mm, 3 μm particle size) from Waters. The mobile phase gradient pumped at 0.8 mL/min was used to elute the analytes from the column at 25° C. […] Compounds were titrated and IC50's were calculated by 4 parameter sigmoidal curve fitting formula.

T1 sequence (P14902 whole entry): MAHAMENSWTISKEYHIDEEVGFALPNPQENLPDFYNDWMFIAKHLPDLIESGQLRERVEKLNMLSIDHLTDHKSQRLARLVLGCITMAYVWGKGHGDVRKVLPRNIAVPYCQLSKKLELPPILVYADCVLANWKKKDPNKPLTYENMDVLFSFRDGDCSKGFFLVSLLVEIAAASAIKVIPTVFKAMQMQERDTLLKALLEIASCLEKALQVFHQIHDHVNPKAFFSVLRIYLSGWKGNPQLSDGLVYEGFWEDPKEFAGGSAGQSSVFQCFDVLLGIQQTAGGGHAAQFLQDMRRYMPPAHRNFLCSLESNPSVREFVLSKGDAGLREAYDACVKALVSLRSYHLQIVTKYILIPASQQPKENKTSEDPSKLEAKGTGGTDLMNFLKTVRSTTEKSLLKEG

How did the IC50 (IDO1 [1]) turn out when `O=C(NC1(c2ccc3c(n2)CCC[C@@H]3Oc2cccc(Cl)c2)CC1)c1ccc(F)cc1` (single isomer, unassigned) [Example 3] was run?
Its IC50 is 6.99 nM.

And the IC50 (IDO1 [2])?
Its IC50 is > 1000 nM.

For `O=C(NC1(c2ccc3c(n2)CCC[C@H]3Oc2cccc(Cl)c2)CC1)c1ccc(F)cc1` (single isomer, unassigned) [Example 2], which IC50 (IDO1 [1]) is on record?
Its IC50 is 2.98 nM.

And the IC50 (IDO1 [2])?
Its IC50 is 864 nM.

How did the IC50 (IDO1 [1]) turn out when `O=C(NC1(c2ccc3c(n2)CCCC3Oc2cccc(Cl)c2)CC1)c1ccc(F)cc1` (stereo not drawn) [Example 1, N-(1-(5-(3-chlorophenoxy)-5,6,7,8-tetrahydroquinolin-2-yl)cyclopropyl)-4-fluorobenzamide] was run?
The IC50 was 2.68 nM.

And the IC50 (IDO1 [2])?
The IC50 was 601 nM.
